Assay results from patent publication US20240315993A1, “ANTIPARASITIC COMPOUNDS” (Intervet Inc., priority 2021, published 2024).
Where two headings read alike, the source gives them in different places.

Assays:
[1] = system: Fly larvae I (Lucilia cuprina); assay: Fly larvae contact/feeding assay; details: 48 h, read-out: Inhibition of fly larvae development
Method: Fly larvae I (Lucilia cuprina) were grown in medium spiked with declining concentrations of a test compound (dissolved in a DMSO-emulsifier-deionized water mixture). Inhibition of fly larvae development (%) was assessed after approximately 48 hours of continuous exposure. The vitality of used parasites was confirmed in negative control groups (i.e., an untreated control and a solvent control).

[2] = system: Rhipicephalus microplus tick larvae; assay: Tick larvae contact assay; details: read-out: Tick inhibition (% of damage+dead ticks)
Method: Tick larvae (Rhipicephalus microplus) were immersed for approximately 3 minutes in declining concentrations of a test compound (dissolved in a DMSO-emulsifier-deionized water mixture). Tick inhibition (% of damage+dead ticks per test concentration) was assessed approximately 24 hours after contact exposure. The vitality of used parasites was confirmed in negative control groups (i.e. an untreated control and a solvent control).

[3] = system: Ctenocephalides felis fleas; assay: Dog - efficacy against fleas; assay type: in vivo; details: for therapeutic efficacy against fleas (active = efficacy ≥80 percent): D2
Method: (§1) Beagle dogs were infested (whole body) with 80 Ctenocephalides felis fleas and 50 Rhipicephalus sanguineus or Haemaphysalis elliptica ticks (sex ratio 1:1) two days before the treatment day (Day 0), and repeatedly thereafter. Dogs of treatment groups were treated with 10 mg/kg bodyweight of a test compound orally (compound weighed in gelatin capsule), topically (spot-on, DMA 92%/DEET 8%) or subcutaneously (PEG 200 90%/water for injection 10%). Dogs of the negative control group received only an empty gelatin capsule orally and the spot-on formulation excipients topically.
(§2) Compounds with efficacy ≥80 percent were found active.

[4] = system: Adult fleas (Ctenocephalides felis); assay: Flea feeding assay; details: read-out: flea inhibition (% of dead+damaged fleas)
Method: Adult fleas (Ctenocephalides felis) of defined age were fed on artificial membranes with blood spiked with declining concentrations of a test compound (dissolved in a DMSO-emulsifier-blood mixture). After approximately 48 hours of continuous feeding, flea inhibition (i.e., % of dead+damaged fleas per test concentration) was assessed. The vitality of used parasites was confirmed in negative control groups (i.e., an untreated control and a solvent control).

Rhipicephalus microplus = assay: Cattle - efficacy against one-host tick; assay type: in vivo
In short: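 Cattle infested whole-body with up to 3000 R. microplus larvae two or three times weekly around Day 0, then given 1 mg/kg subcutaneously or topically (spray or pour-on); controls got excipients only. Engorged females dropping were counted daily; efficacy by ADEQ per WAAVP guidelines, onset/duration as first/last day ≥80%.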

[5] = system: bed bugs (Cimex lectularius); assay: Guinea pig - efficacy against bed bug; assay type: in vivo; details: for effective to control bed bugs: 5 mg/kg
In short: (§3)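 Guinea pigs given 5 mg/kg test compound orally (gavage) or s.c. in 10% DMF/emulsifier plus 90% water for injection, with local co-infestations of Ornithodoros moubata juveniles and Cimex lectularius at several post-treatment times. Engorged parasites scored dead/damaged about 24 h after collection; % inhibition versus pretreatment baseline by modified Schneider-Orelli formula.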

[6] = system: Tick nymphs (stage III, Ornithodoros moubata); assay: Tick feeding assay; details: read-out: Tick inhibition (% of damaged+dead ticks at molting-assessment)
Method: Tick nymphs (stage III, Ornithodoros moubata) were fed on artificial membranes with blood spiked with declining concentrations of a test compound (dissolved in a DMSO-emulsifier-blood mixture). Fed nymphs were incubated for around 2-3 weeks to enable tick molting into the next stage. Tick inhibition (i.e, % of damaged+dead ticks at molting-assessment per test concentration) was assessed. The vitality of used parasites was confirmed in negative control groups (i.e., an untreated control and a solvent control).

[7] = system: Mobile stages of sea lice (pre-adults, adults of Lepeophtheirus salmonis); assay: Adult sea lice contact assay; details: read-out: EC50 (sea lice inhibition, dead+damaged)
Method: Mobile stages of sea lice (i.e., pre-adults, adults of Lepeophtheirus salmonis) were exposed to seawater spiked with declining concentrations of a test compound (dissolved in a PEG sea-water mixture). Sea lice inhibition (% of dead+damaged sea lice) was assessed after approximately 1 and 24 hours of continuous exposure in comparison to a negative (solvent) control group.

[8] = system: juvenile soft ticks (Ornithodoros moubata); assay: Guinea pig - efficacy against argaside tick; assay type: in vivo; details: for effective to control ticks / duration of efficacy, subcutaneous compared with oral administration: 5 mg/kg; for duration of efficacy, subcutaneous compared with oral administration: ticks and bed bugs
In short: as §3

[9] = system: Rhipicephalus sanguineus or Haemaphysalis elliptica ticks; assay: Dog - efficacy against ticks; assay type: in vivo; details: for therapeutic efficacy against ticks (active = efficacy ≥80 percent): D2
Method: as §1, §2

[10] = system: Copepodids (juvenile sea lice stage of Lepeophtheirus salmonis); assay: Juvenile sea lice contact assay; details: Lepeophtheirus salmonis, read-out: Sea lice inhibition (% of dead+damaged copepodids)
Method: Copepodids (juvenile sea lice stage of Lepeophtheirus salmonis) were exposed to seawater spiked with declining concentrations of a test compound (dissolved in a DMSO sea-water mixture). Sea lice inhibition (% of dead+damaged copepodids) was assessed after approximately 24 hours of continuous exposure. The vitality of used parasites was confirmed in a negative (solvent) control group.

Lepeophtheirus salmonis [11] = assay: Salmon - in vivo efficacy against sea lice using gavage administration; details: 5 mg/kg once by gavage, day -3 infestation, counted around day 28
Method: Salmon (Salmo solar) were treated once orally by gavage at a dose of 5 mg/kg bodyweight per fish (Day 0). As formulation DMSO 5%/fish oil 95% was used. Salmon of the negative control group received only the excipients of the formulation.
The fish were infested with Lepeophtheirus salmonis copepodids twice before treatment (i.e., around day −28 and day −3) and once after treatment (i.e., day 17).
Around day 28 (end of animal phase), fish were euthanized, and lice on each fish were classified ((pre-)adult or juvenile stage) and counted. […] Efficacy is expressed as a % reduction of sea lice in treated groups versus a control group, using the Abbott's formula.

Lepeophtheirus salmonis [12] = assay: as above; details: po, 168 h, read-out: therapeutic efficacy against (pre-)adult sea lice (% reduction vs control), salmon, 5 mg/kg once by gavage, day -28 infestation, counted day 7
[13] = 1 mg/kg topical (Compound 4: spray solution; others: DMA 92%/DEET 8% pour-on)
[14] = 5 mg/kg subcutaneous, after 7 days
[15] = 5 mg/kg subcutaneous, after 10 days
[16] = 5 mg/kg subcutaneous, after 14 days
[17] = 5 mg/kg subcutaneous, after 17 days
[18] = at least until Day 10, both administration routes (oral, subcutaneous)
[19] = for at least one week, both administration routes
[20] = 100 ppm, ~3 min immersion, assessed ~24 h after

O=C(Nc1ccc(F)cc1)c1cc(NC(=O)[C@H]2[C@H](c3cc(Cl)cc(Cl)c3)C2(Cl)Cl)ccc1F (racemic) [Compound 4]
inhibition at 100 ppm [1]: 80%
inhibition at 25 µM [2]: ≥ 80%
inhibition at 100 ppm [2]: 80%
efficacy against fleas in dogs (conclusion) ([3]; 10 mg/kg): therapeutic efficacy
therapeutic efficacy against fleas (active = efficacy ≥80 percent) ([3]; 10 mg/kg oral): active
therapeutic efficacy against fleas (active = efficacy ≥80 percent) ([3]; 10 mg/kg subcutaneous): active
active against fleas up to (efficacy ≥80 percent) ([3]; 10 mg/kg subcutaneous, repeated infestations): 86 D
inhibition at 1 ppm ([4]; 48 h): 80%
duration of efficacy (last Day with efficacy ≥80 percent) (Rhipicephalus microplus; 1 mg/kg subcutaneous): 38 days
onset of efficacy (first Day with efficacy ≥80 percent) (Rhipicephalus microplus; 1 mg/kg subcutaneous): 2 days
duration of efficacy (last Day with efficacy ≥80 percent) (Rhipicephalus microplus; [13]): 58 days
onset of efficacy (first Day with efficacy ≥80 percent) (Rhipicephalus microplus; [13]): 3 days
activity against bed bugs (≥80% inhibition, killed+damaged) ([5]; 5 mg/kg oral, Day 0): immediate activity
activity against bed bugs (≥80% inhibition, killed+damaged) ([5]; 5 mg/kg oral, after 7 days): activity
activity against bed bugs (≥80% inhibition, killed+damaged) ([5]; 5 mg/kg oral, after 10 days): activity
activity against bed bugs (≥80% inhibition, killed+damaged) ([5]; 5 mg/kg oral, after 14 days): activity
activity against bed bugs (≥80% inhibition, killed+damaged) ([5]; 5 mg/kg subcutaneous, Day 0): immediate activity
activity against bed bugs (≥80% inhibition, killed+damaged) [5, 14]: activity
activity against bed bugs (≥80% inhibition, killed+damaged) [5, 15]: activity
activity against bed bugs (≥80% inhibition, killed+damaged) [5, 16]: activity
activity against bed bugs (≥80% inhibition, killed+damaged) [5, 17]: activity
effective to control bed bugs [5, 18]: 100%
effective to control bed bugs [5, 19]: 100%
inhibition at 1 ppm [6]: 80%
EC50 [7]: 10 to 25 nM
activity against tick nymphs (≥80% inhibition, killed+damaged) ([8]; 5 mg/kg oral, Day 0): immediate activity
activity against tick nymphs (≥80% inhibition, killed+damaged) ([8]; 5 mg/kg oral, after 7 days): activity
activity against tick nymphs (≥80% inhibition, killed+damaged) ([8]; 5 mg/kg oral, after 10 days): activity
activity against tick nymphs (≥80% inhibition, killed+damaged) ([8]; 5 mg/kg oral, after 14 days): activity
activity against tick nymphs (≥80% inhibition, killed+damaged) ([8]; 5 mg/kg subcutaneous, Day 0): immediate activity
activity against tick nymphs (≥80% inhibition, killed+damaged) [8, 14]: activity
activity against tick nymphs (≥80% inhibition, killed+damaged) [8, 15]: activity
activity against tick nymphs (≥80% inhibition, killed+damaged) [8, 16]: activity
activity against tick nymphs (≥80% inhibition, killed+damaged) [8, 17]: activity
effective to control ticks [8, 18]: 100%
effective to control ticks [8, 19]: 100%
duration of efficacy, subcutaneous compared with oral administration [8]: longer duration of efficacy
efficacy against ticks in dogs (conclusion) ([9]; 10 mg/kg): therapeutic efficacy
therapeutic efficacy against ticks (active = efficacy ≥80 percent) ([9]; 10 mg/kg oral): active
therapeutic efficacy against ticks (active = efficacy ≥80 percent) ([9]; 10 mg/kg subcutaneous): active
inhibition at 0.1 µM ([10]; 24 h): ≥ 80%

CN(C(=O)c1cc(NC(=O)[C@H]2[C@H](c3cc(Cl)cc(Cl)c3)C2(Cl)Cl)ccc1Cl)c1ccc(F)cc1 [Compound 51]
inhibition at 100 ppm [1]: 80%
inhibition at 25 µM ([2]; 25 μM, ~3 min immersion, assessed ~24 h after): ≥ 80%
inhibition at 49 µM ([2]; 49 μM, ~3 min immersion, assessed ~24 h after): 80%
inhibition at 388 µM ([2]; 388 μM, ~3 min immersion, assessed ~24 h after): 80%
inhibition at 100 ppm [2, 20]: 80%
activity against bed bugs (≥80% inhibition, killed+damaged) ([5]; 5 mg/kg oral, Day 0): immediate activity
activity against bed bugs (≥80% inhibition, killed+damaged) ([5]; 5 mg/kg oral, after 7 days): activity
activity against bed bugs (≥80% inhibition, killed+damaged) ([5]; 5 mg/kg subcutaneous, Day 0): immediate activity
activity against bed bugs (≥80% inhibition, killed+damaged) [5, 14]: activity
activity against bed bugs (≥80% inhibition, killed+damaged) [5, 15]: activity
activity against bed bugs (≥80% inhibition, killed+damaged) [5, 16]: activity
activity against bed bugs (≥80% inhibition, killed+damaged) [5, 17]: activity
activity against tick nymphs (≥80% inhibition, killed+damaged) ([8]; 5 mg/kg oral, Day 0): immediate activity
activity against tick nymphs (≥80% inhibition, killed+damaged) ([8]; 5 mg/kg oral, after 7 days): activity
activity against tick nymphs (≥80% inhibition, killed+damaged) ([8]; 5 mg/kg subcutaneous, Day 0): immediate activity
activity against tick nymphs (≥80% inhibition, killed+damaged) [8, 14]: activity
activity against tick nymphs (≥80% inhibition, killed+damaged) [8, 15]: activity
activity against tick nymphs (≥80% inhibition, killed+damaged) [8, 16]: activity
activity against tick nymphs (≥80% inhibition, killed+damaged) [8, 17]: activity
duration of efficacy, subcutaneous compared with oral administration [8]: longer duration of efficacy
inhibition at 0.1 µM ([10]; 100 nM in seawater, ~24 h): ≥ 80%

O=C(Nc1ncc(F)cc1F)c1cc(NC(=O)[C@H]2[C@H](c3ccc(Cl)c(Cl)c3)C2(Cl)Cl)ccc1Cl [Compound 86]
inhibition at 100 ppm [1]: 80%
inhibition at 100 ppm [2, 20]: 80%
inhibition at 1 ppm ([4]; 1 ppm in blood, ~48 h membrane feeding): 80%
activity against bed bugs (≥80% inhibition, killed+damaged) ([5]; 5 mg/kg oral, Day 0): immediate activity
activity against bed bugs (≥80% inhibition, killed+damaged) ([5]; 5 mg/kg oral, after 7 days): activity
activity against bed bugs (≥80% inhibition, killed+damaged) ([5]; 5 mg/kg oral, after 10 days): activity
activity against bed bugs (≥80% inhibition, killed+damaged) ([5]; 5 mg/kg subcutaneous, Day 0): immediate activity
activity against bed bugs (≥80% inhibition, killed+damaged) [5, 14]: activity
activity against bed bugs (≥80% inhibition, killed+damaged) [5, 15]: activity
effective to control bed bugs [5, 18]: 100%
EC50 ([7]; pre-adults/adults, assessed after ~1 and 24 h): ≤ 10 nM
activity against tick nymphs (≥80% inhibition, killed+damaged) ([8]; 5 mg/kg oral, Day 0): immediate activity
activity against tick nymphs (≥80% inhibition, killed+damaged) ([8]; 5 mg/kg oral, after 7 days): activity
activity against tick nymphs (≥80% inhibition, killed+damaged) ([8]; 5 mg/kg oral, after 10 days): activity
activity against tick nymphs (≥80% inhibition, killed+damaged) ([8]; 5 mg/kg subcutaneous, Day 0): immediate activity
activity against tick nymphs (≥80% inhibition, killed+damaged) [8, 14]: activity
activity against tick nymphs (≥80% inhibition, killed+damaged) [8, 15]: activity
effective to control ticks [8, 18]: 100%
therapeutic efficacy against juvenile sea lice (% reduction vs control) (Lepeophtheirus salmonis [11]): 100%
inhibition in vivo at 5 mg/kg (Lepeophtheirus salmonis [12]): 100%
inhibition at 0.01 µM ([10]; 10 nM in seawater, ~24 h): 100%
